Data set [1] can be described thus: Stability assessed as trypsin (unknown origin)-mediated compound hydrolysis by measuring compound half life at 250 uM at 37 degC by LC-MS/MS method. Type of data set: ADME. Particulars: human; call rule not given here.
Data set [2] has as its target T1, Estrogen receptor (Homo sapiens, UniProt P03372).
T1 sequence (P03372 whole entry): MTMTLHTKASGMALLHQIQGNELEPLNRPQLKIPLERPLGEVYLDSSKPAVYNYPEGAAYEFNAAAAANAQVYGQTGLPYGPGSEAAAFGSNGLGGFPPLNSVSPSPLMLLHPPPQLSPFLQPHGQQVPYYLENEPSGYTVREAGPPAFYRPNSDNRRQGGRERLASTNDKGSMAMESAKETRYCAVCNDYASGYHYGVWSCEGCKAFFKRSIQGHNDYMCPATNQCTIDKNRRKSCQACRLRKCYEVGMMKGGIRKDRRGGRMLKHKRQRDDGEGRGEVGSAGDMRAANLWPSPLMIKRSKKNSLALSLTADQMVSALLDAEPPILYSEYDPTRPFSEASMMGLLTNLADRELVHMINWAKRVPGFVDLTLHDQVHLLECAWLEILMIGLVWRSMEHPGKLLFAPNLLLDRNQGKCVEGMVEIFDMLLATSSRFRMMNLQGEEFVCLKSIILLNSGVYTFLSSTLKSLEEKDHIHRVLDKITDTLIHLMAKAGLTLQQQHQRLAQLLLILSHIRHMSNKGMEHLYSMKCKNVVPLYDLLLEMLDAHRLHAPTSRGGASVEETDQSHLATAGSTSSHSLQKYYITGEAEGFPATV
As to the kind of experiment: Binding affinity to recombinant human ER-alpha LBD (301 to 553 residues) expressed in Escherichia coli BL21(DE3) after 1 hr by fluorescence polarization assay. For orientation: Fluorescence polarisation rises when a labelled molecule tumbles more slowly, as on binding a larger partner.

Data set [3] can be described thus: Drug uptake in HEK293T cells at 10 uM after 4 hrs by flow cytometry. Type of data set: ADME, cell-based. Particulars: human, hek-293t. Background: In flow cytometry, cells or beads pass a laser one at a time.
Data set [4] is described as follows: Drug uptake in cytoplasm of HEK293T cells at 10 uM after 16 hrs by DAPI staining based confocal microscopic method. Particulars: human. The format is ADME, cell-based.

Numbered stars: 1 amine (or outer) side, 2 acyl side, 3 side chain; on linkers, the order of the positions; unused ones are H or OH. Bridge positions count the residues as written; N and C are the ends. Square brackets hold non-standard residues; d marks the D form. Peptide text beside a SMILES is read from it. * marks the point of attachment. 5FAM = O=C1OC2(c3ccc(O)cc3Oc3cc(O)ccc32)c2ccc(C(=O)*)cc21; X1 = O=C(CN(CC[*:3])[*:1])[*:2]; Mpa = O=C(O)CCS

Consider `CC[C@H](C)[C@H](NC(=O)CN1CC[S+]([O-])CCC(=O)N[C@@H](CCCNC(=N)N)C(=O)N[C@@H](CCCCN)C1=O)C(=O)N[C@@H](CC(C)C)C(=O)N[C@@H](CCCNC(=N)N)C(=O)N[C@@H](CCCNC(=N)N)C(=O)N[C@@H](CC(C)C)C(=O)N[C@@H](CC(C)C)C(=O)N[C@@H](CCC(N)=O)C(=O)NCC(=O)N[C@@H](Cc1c[nH]c2ccccc12)C(N)=O` (single isomer, unassigned; isomer 2), for which the t1/2 in data set [1] came out at 2.1 min.

On to `CC[C@H](C)[C@H](NC(=O)CN1CC[S+]([O-])CCC(=O)N[C@@H](CCCNC(=N)N)C(=O)N[C@@H](CCCCN)C1=O)C(=O)N[C@@H](CC(C)C)C(=O)N[C@@H](CCCNC(=N)N)C(=O)N[C@@H](CCCNC(=N)N)C(=O)N[C@@H](CC(C)C)C(=O)N[C@@H](CC(C)C)C(=O)N[C@@H](CCC(N)=O)C(=O)NCC(=O)N[C@@H](Cc1c[nH]c2ccccc12)C(N)=O` (stereo in doubt), for which the t1/2 in data set [1] worked out at 5.9 min.

Broadly, the Kd is the constant that tells how readily two partners part at equilibrium. For `CC[C@H](C)[C@H](NC(=O)CN1CC[S+]([O-])CCC(=O)N[C@@H](CCCNC(=N)N)C(=O)N[C@@H](CCCCNC(=O)c2ccc3c(c2)C(=O)OC32c3ccc(O)cc3Oc3cc(O)ccc32)C1=O)C(=O)N[C@@H](CC(C)C)C(=O)N[C@@H](CCCNC(=N)N)C(=O)N[C@@H](CCCNC(=N)N)C(=O)N[C@@H](CC(C)C)C(=O)N[C@@H](CC(C)C)C(=O)N[C@@H](CCC(N)=O)C(=O)NCC(=O)N[C@@H](Cc1c[nH]c2ccccc12)C(N)=O` (stereo in doubt; form 2), the Kd in data set [2] came to 386 nM. The Drug uptake result in data set [3] and in data set [4] was “Active” in each case.

Turning to `CC[C@H](C)[C@H](NC(=O)CN1CC[S+]([O-])CCC(=O)N[C@@H](CCCNC(=N)N)C(=O)N[C@@H](CCCCNC(=O)c2ccc3c(c2)C(=O)OC32c3ccc(O)cc3Oc3cc(O)ccc32)C1=O)C(=O)N[C@@H](CC(C)C)C(=O)N[C@@H](CCCNC(=N)N)C(=O)N[C@@H](CCCNC(=N)N)C(=O)N[C@@H](CC(C)C)C(=O)N[C@@H](CC(C)C)C(=O)N[C@@H](CCC(N)=O)C(=O)NCC(=O)N[C@@H](Cc1c[nH]c2ccccc12)C(N)=O` (stereo in doubt; form 1), the Kd in data set [2] was found to be 183 nM.

For the compound `CC[C@H](C)[C@H](NC(=O)CNC(=O)[C@H](CCCCNC(=O)c1ccc2c(c1)C(=O)OC21c2ccc(O)cc2Oc2cc(O)ccc21)NC(=O)[C@@H](N)CCCNC(=N)N)C(=O)N[C@@H](CC(C)C)C(=O)N[C@@H](CCCNC(=N)N)C(=O)N[C@@H](CCCNC(=N)N)C(=O)N[C@@H](CC(C)C)C(=O)N[C@@H](CC(C)C)C(=O)N[C@@H](CCC(N)=O)C(=O)NCC(=O)N[C@@H](Cc1c[nH]c2ccccc12)C(=O)O` (H-RK(5FAM)GILRRLLQGW-OH), in data set [2], the Kd turned out to be 162 nM.

Consider `CC[C@H](C)[C@H](NC(=O)CN1CCSCCC(=O)N[C@@H](CCCNC(=N)N)C(=O)N[C@@H](CCCCNC(=O)c2ccc3c(c2)C(=O)OC32c3ccc(O)cc3Oc3cc(O)ccc32)C1=O)C(=O)N[C@@H](CC(C)C)C(=O)N[C@@H](CCCNC(=N)N)C(=O)N[C@@H](CCCNC(=N)N)C(=O)N[C@@H](CC(C)C)C(=O)N[C@@H](CC(C)C)C(=O)N[C@@H](CCC(N)=O)C(=O)NCC(=O)N[C@@H](Cc1c[nH]c2ccccc12)C(N)=O` ([Mpa]RK(5FAM)[X1]ILRRLLQGW-NH2; thioether 1-4), for which the Kd in data set [2] is 212 nM.

The values are drawn from ChEMBL document CHEMBL3992506, “An in-tether sulfoxide chiral center influences the biophysical properties of the N-capped peptides” (Bioorg Med Chem, 2017).
